Several values for one entry are separate records, joined by “and”; a condition that tells them apart may be missing. Equal values may be shown once. Read-outs that look alike come from different tables or passages of the source.
Legend:
A498 (renal cancer) = assay: NCI 60-cell line protocol, Renal Cancer A498; format: cell-based, human; settings: SRB endpoint; for GI50: Homo sapiens, A498, 48 h, five 10-fold dilutions, two days exposure; for A498 one dose (%): one-dose protocol, single final concentration of 10 micromolar, two days
ACHN (renal cancer) = assay: NCI 60-cell line protocol, Renal Cancer ACHN; format: cell-based, human; settings: SRB endpoint; for GI50: Homo sapiens, ACHN, 48 h, five 10-fold dilutions, two days exposure; for ACHN one dose (%): one-dose protocol, single final concentration of 10 micromolar, two days
HS 578T (breast cancer) = assay: NCI 60-cell line protocol, Breast Cancer HS 578T; format: cell-based, human; settings: SRB endpoint; for GI50: Homo sapiens, Hs-578T, 48 h, five 10-fold dilutions, two days exposure; for HS 578T one dose (%): one-dose protocol, single final concentration of 10 micromolar, two days
[1] = Plasma concentration in mice 30 minutes after oral gavage, by dose (LC-MS); format: in vivo
Procedure: Mice were dosed at 5 mg/kg, 10 mg/kg, 50 mg/kg, and 100 mg/kg compound 9 in Labrasol vehicle via oral gavage. 30 minutes after dosing, plasma was assayed for the concentration of compound 9 using LC-MS. The results are depicted graphically in FIG. 5.

[2] = Plasma concentration in mice over time after oral gavage (LC-MS/MS); format: in vivo
Procedure: Ten mice were administered 50 mg/kg of compound 9 in Labrasol vehicle via oral gavage. Two mice at a time were sacrificed at the following time points: 5 min, 15 min, 1 h, 4 h, and 8 h. Plasma concentrations of compound 9 were measured by LC-MS/MS, and the results set forth in Table 4 and depicted graphically in FIG. 7.
It was subsequently discovered that an error was made in weighing out compound 9 for formulation of a 5 mg/mL solution in Labrasol. The underweight formulation was confirmed to be about 40% of the expected concentration.

SA = assay: NCI 60-cell line protocol, Leukemia SA; format: cell-based, human; settings: single dose 10 μM, two days exposure, SRB endpoint
M14 = assay: NCI 60-cell line protocol, Melanoma M14; settings: single dose 10 μM, two days exposure, SRB endpoint
Procedure: (§1) Samples were tested in the standard National Cancer Institute 60-cell line protocol. First, they were tested against all 60 cell lines in a single final concentration of 10 micromolar. Then, they were separately tested in five 10-fold dilutions. The drug exposure was for two days, with an SRB endpoint.
(§2) Samples were tested in the standard National Cancer Institute 60-cell line protocol. The dosing protocol was a single dose of the compound at 10 μM concentration.

K-562 = assay: NCI 60-cell line protocol, Leukemia K-562; settings: K-562 (Leukemia); single dose 10 μM; two days exposure; SRB endpoint
Procedure: as §1, §2

CCRF-CEM = assay: NCI 60-cell line protocol, Leukemia CCRF-CEM; settings: single dose 10 μM, two days exposure, SRB endpoint
Procedure: as §1, §2

UACC-62 = assay: NCI 60-cell line protocol, Melanoma UACC-62; settings: UACC-62 (Melanoma); single dose 10 μM; two days exposure; SRB endpoint
Procedure: as §1, §2

LOX IMVI = assay: NCI 60-cell line protocol, Melanoma LOX IMVI; settings: single dose 10 μM, two days exposure, SRB endpoint
Procedure: as §1, §2

MALME-3M = assay: NCI 60-cell line protocol, Melanoma MALME-3M; settings: MALME-3M (Melanoma); single dose 10 μM; two days exposure; SRB endpoint
Procedure: as §1, §2

SK-MEL-2 = assay: NCI 60-cell line protocol, Melanoma SK-MEL-2; settings: SK-MEL-2 (Melanoma); single dose 10 μM; two days exposure; SRB endpoint
Procedure: as §1, §2

SK-MEL-5 = assay: NCI 60-cell line protocol, Melanoma SK-MEL-5; settings: SK-MEL-5 (Melanoma); single dose 10 μM; two days exposure; SRB endpoint
Procedure: as §1, §2

UACC-257 = assay: NCI 60-cell line protocol, Melanoma UACC-257; settings: UACC-257 (Melanoma); single dose 10 μM; two days exposure; SRB endpoint
Procedure: as §1, §2

RPMI-8226 = assay: NCI 60-cell line protocol, Leukemia RPMI-8226; settings: RPMI-8226 (Leukemia); single dose 10 μM; two days exposure; SRB endpoint
Procedure: as §1, §2

SK-MEL-28 = assay: NCI 60-cell line protocol, Melanoma SK-MEL-28; settings: SK-MEL-28 (Melanoma); single dose 10 μM; two days exposure; SRB endpoint
Procedure: as §1, §2

MDA-MB-435 = assay: NCI 60-cell line protocol, Melanoma MDA-MB-435; settings: MDA-MB-435 (Melanoma); single dose 10 μM; two days exposure; SRB endpoint
Procedure: as §1, §2

HL-60(fB) = assay: NCI 60-cell line protocol, Leukemia HL-60(fB); format: cell-based, human; settings: HL-60(fB) (Leukemia); single dose 10 μM; two days exposure; SRB endpoint
MOLT-4 = assay: NCI 60-cell line protocol, Leukemia MOLT-4; format: cell-based, human; settings: MOLT-4 (Leukemia); single dose 10 μM; two days exposure; SRB endpoint

| Compound | GI50 (A498 (renal cancer)) | A498 one dose (%) (A498 (renal cancer)) | GI50 (ACHN (renal cancer)) | ACHN one dose (%) (ACHN (renal cancer)) | GI50 (HS 578T (breast cancer)) | HS 578T one dose (%) (HS 578T (breast cancer)) | Growth Percent (SA) | Growth Percent (M14) | Growth Percent (K-562) | Growth Percent (CCRF-CEM) | Growth Percent (UACC-62) | Growth Percent (LOX IMVI) | Growth Percent (MALME-3M) | Growth Percent (SK-MEL-2) | Growth Percent (SK-MEL-5) | Growth Percent (UACC-257) | Growth Percent (RPMI-8226) | Growth Percent (SK-MEL-28) | Growth Percent (MDA-MB-435) | also measured |
| --- | --- | --- | --- | --- | --- | --- | --- | --- | --- | --- | --- | --- | --- | --- | --- | --- | --- | --- | --- | --- |
| CC1CCC2C1C(OC(=O)/C=C/c1ccccc1)C1(C(C)C)CC(NC(=O)CO)C2(C)O1 (centres unmarked) [Compound 9] | 160 nM | −15.20% | 4000 nM | 8.01% | 830 nM | 9.45% | – | – | – | – | – | – | – | – | – | – | – | – | – | concentration at 30 min ([1]; mouse, plasma, 100 mg/kg oral gavage in Labrasol, 30 minutes after dosing): ~700 ng/mL; oral bioavailability ([1]; oral gavage 5-100 mg/kg in Labrasol): orally bioavailable; [Aza-Englerin] (ng/mL), single animal ([2]; mice plasma, 50 mg/kg oral gavage in Labrasol, time 0.0833 hr, 50 mg/kg): 13.20 ng/mL; [Aza-Englerin] (ng/mL), single animal ([2]; mice plasma, 50 mg/kg oral gavage in Labrasol, time 0.2500 hr, 50 mg/kg): 22.76 ng/mL and 58.70 ng/mL; [Aza-Englerin] (ng/mL), single animal ([2]; mice plasma, 50 mg/kg oral gavage in Labrasol, time 1.0000 hr, 50 mg/kg): 59.24 ng/mL; [Aza-Englerin] (ng/mL), single animal ([2]; mice plasma, 50 mg/kg oral gavage in Labrasol, time 4.0000 hr, 50 mg/kg): 31.12 ng/mL and 86.81 ng/mL; [Aza-Englerin] (ng/mL), single animal ([2]; mice plasma, 50 mg/kg oral gavage in Labrasol, time 8.0000 hr, 50 mg/kg): 48.21 ng/mL; oral bioavailability ([2]; mice, oral gavage 50 mg/kg in Labrasol): orally bioavailable; absorption ([2]; mice, oral gavage in Labrasol): rapidly absorbed; time for which plasma concentrations are sustained ([2]; mice, oral gavage in Labrasol): greater than 8 h; concentration at 5 min ([2]; mouse, plasma, po, 50 mg/kg, mice plasma, 50 mg/kg oral gavage in Labrasol, time 0.0833 hr, mean of two mice, read-out: [Aza-Englerin] Mean): 10 ng/mL; concentration at 5 min ([2]; mouse, plasma, po, 50 mg/kg, mice plasma, 50 mg/kg oral gavage in Labrasol, time 0.0833 hr, read-out: [Aza-Englerin] (ng/mL), single animal): 6.87 ng/mL; concentration at 0.25 h ([2]; mouse, plasma, po, 50 mg/kg, mice plasma, 50 mg/kg oral gavage in Labrasol, time 0.2500 hr, mean of two mice, read-out: [Aza-Englerin] Mean): 40.7 ng/mL; concentration at 1 h ([2]; mouse, plasma, po, 50 mg/kg, mice plasma, 50 mg/kg oral gavage in Labrasol, time 1.0000 hr, mean of two mice, read-out: [Aza-Englerin] Mean): 73.2 ng/mL; concentration at 1 h ([2]; mouse, plasma, po, 50 mg/kg, mice plasma, 50 mg/kg oral gavage in Labrasol, time 1.0000 hr, read-out: [Aza-Englerin] (ng/mL), single animal): 87.2 ng/mL; concentration at 4 h ([2]; mouse, plasma, po, 50 mg/kg, mice plasma, 50 mg/kg oral gavage in Labrasol, time 4.0000 hr, mean of two mice, read-out: [Aza-Englerin] Mean): 59 ng/mL; concentration at 8 h ([2]; mouse, plasma, po, 50 mg/kg, mice plasma, 50 mg/kg oral gavage in Labrasol, time 8.0000 hr, mean of two mice, read-out: [Aza-Englerin] Mean): 67.8 ng/mL; concentration at 8 h ([2]; mouse, plasma, po, 50 mg/kg, mice plasma, 50 mg/kg oral gavage in Labrasol, time 8.0000 hr, read-out: [Aza-Englerin] (ng/mL), single animal): 87.3 ng/mL; AUC(0-t) ([2]; mouse, mice plasma, 50 mg/kg oral gavage in Labrasol, SE=97.3 hr*ng/mL): 524 ng·h/mL |
| CC(C)[C@@]12C[C@@H](NC(=O)CO)[C@@](C)(O1)[C@@H]1CC[C@@H](C)[C@H]1[C@@H]2OC(=O)/C=C/C1CCCCC1 [Compound 11] | 5600 nM | 41.34% | 17000 nM | 99.90% | 6200 nM | 73.09% | – | – | – | – | – | – | – | – | – | – | – | – | – | – |
| C/C(=C\C(=O)OC1C2C(C)CCC2C2(C)OC1(C(C)C)CC2NC(=O)CO)c1ccccc1 (centres unmarked) [Compound 10] | 1100 nM | −24.59% | 3300 nM | 27.88% | 2200 nM | −8.92% | 117.13% | 100.16% | 92.32% | 94.07% | 101.83% | 100.2% | 95.9% | 104.13% | 101.11% | 92.39% | 125.43% | 117.95% | 105.86% | – |
| CC(C)[C@@]12C[C@@H](NC(=O)CO)[C@@](C)(O1)[C@@H]1CC[C@@H](C)[C@H]1[C@@H]2OC(=O)c1ccc2ccccc2c1 [Compound 12] | 1600 nM | −15.23% | 5400 nM | 8.40% | 2200 nM | −18.26% | – | – | – | – | – | – | – | – | – | – | – | – | – | – |
| CC1CCC2C1C(OC(=O)/C=C/c1ccccc1)C1(C(C)C)CC(NC(=O)CF)C2(C)O1 (centres unmarked) [Compound 31] | – | 83.31% | – | 104.52% | – | 92.63% | 85.46% | 96.67% | 106.42% | 88.63% | 99.56% | 102.48% | 106.46% | 116.95% | 110.24% | 104.8% | 94.34% | 109.79% | 106.48% | Growth Percent (HL-60(fB)): 104.52%; Growth Percent (MOLT-4): 96.46% |
